Experimental data reported in the NIST ThermoML archive (doi:10.1021/je400970y).
± gives the expanded uncertainty stated by the source.

Settings: Liquid, Closed cell (Static) method

C=C(F)C(F)(F)F [2,3,3,3-tetrafluoro-1-propene]
Settings | vapor or sublimation pressure [kPa]
248.17 K | 123.1 ± 3
251.18 K | 138.8 ± 3
254.21 K | 156.9 ± 3
258.2 K | 184.3 ± 3
260.18 K | 198.3 ± 3
262.18 K | 213.8 ± 3
264.2 K | 229.9 ± 3
266.25 K | 248.1 ± 3
270.26 K | 286 ± 3.1
271.16 K | 295.3 ± 3.1
273.21 K | 316.5 ± 3.1
275.22 K | 338.2 ± 3.1
277.22 K | 361.5 ± 3.1
279.14 K | 385.1 ± 3.1
281.23 K | 411.4 ± 3.1
285.18 K | 466.2 ± 3.1
287.22 K | 496.4 ± 3.1
289.22 K | 526.7 ± 3.2
291.22 K | 558.8 ± 3.2
293.25 K | 593.4 ± 3.2
295.25 K | 627.9 ± 3.2
297.55 K | 672.2 ± 3.2
299.19 K | 703 ± 3.3
301.32 K | 746.2 ± 3.3
303.25 K | 786.5 ± 3.3
305.11 K | 825.8 ± 3.3
306.31 K | 852.9 ± 3.4
309.51 K | 927.9 ± 3.4
311.49 K | 976.6 ± 3.5
313.43 K | 1026.2 ± 3.5
315.55 K | 1082.8 ± 3.5
317.23 K | 1128.4 ± 3.6
319.14 K | 1182.9 ± 3.6
321.02 K | 1237.8 ± 3.7
323.79 K | 1322.3 ± 3.8
325.56 K | 1380 ± 3.8
326.82 K | 1420.8 ± 3.9
328.86 K | 1490.2 ± 3.9
330.87 K | 1560.1 ± 4
332.97 K | 1635.8 ± 4.1
334.99 K | 1711.2 ± 4.2
336.99 K | 1788.7 ± 4.2
338.97 K | 1868.1 ± 4.3
341.06 K | 1955.5 ± 4.4
343.04 K | 2040.1 ± 4.5
345.05 K | 2129.1 ± 4.6
347.06 K | 2221.2 ± 4.7
349.05 K | 2315.9 ± 4.9
351.03 K | 2412.1 ± 5
353.08 K | 2516.4 ± 5.1
355.03 K | 2618.5 ± 5.2
357.23 K | 2738.3 ± 5.4
359.34 K | 2856.6 ± 5.5
361.05 K | 2955.2 ± 5.7

CC(F)(Cl)C(F)(F)F (stereo not given) [2-chloro-1,1,1,2-tetrafluoropropane]
Settings | vapor or sublimation pressure [kPa]
268.19 K | 49.7 ± 3
270.19 K | 54.4 ± 3
273.18 K | 60.5 ± 3
275.18 K | 66.4 ± 3
278.16 K | 74.3 ± 3
281.15 K | 83.9 ± 3
283.12 K | 88.9 ± 3
286.13 K | 100.5 ± 3
288.11 K | 106.5 ± 3
290.12 K | 116 ± 3
292.13 K | 124.6 ± 3
295.09 K | 138.2 ± 3
298.12 K | 151.8 ± 3
300.09 K | 163.5 ± 3
302.11 K | 175.3 ± 3
304.25 K | 185.9 ± 3
307.02 K | 203.2 ± 3
308.9 K | 215.2 ± 3
310.68 K | 227.6 ± 3
313.35 K | 247.9 ± 3
315.28 K | 261.8 ± 3
318.34 K | 286.5 ± 3.1
320.84 K | 307.9 ± 3.1
324.02 K | 334.9 ± 3.1
325.63 K | 351.9 ± 3.1
328.81 K | 382.6 ± 3.1
330.46 K | 401.6 ± 3.1
333.63 K | 435.9 ± 3.1
335.25 K | 456.6 ± 3.1
338.51 K | 495.5 ± 3.1
339.67 K | 510.3 ± 3.1
341.68 K | 536.4 ± 3.2
343.28 K | 559.6 ± 3.2
345.27 K | 588.1 ± 3.2
347.07 K | 615.8 ± 3.2
349.07 K | 645.9 ± 3.2
